The results in this text go back to patent EP3748362A1, “IN VITRO METHOD FOR DETECTING RENAL DISEASE” (Fundacion Instituto De Investigacion Sanitaria Fundacion …, priority 2019, dated 2020).

The subject of one assay is NF-κB 1 pathway. The assay can be described thus: Canonical NF-κB1 activation in TWEAK-stimulated PBMCs from healthy donors. As to conditions: 12 µM paricalcitol, TWEAK 100 ng/ml, phosphorylated p65. It is filed as cell-based, Human.
The subject of the next assay is NF-κB2. The assay can be described thus: Non-canonical NF-κB2 activation and NF-κB2 targets in obstructed kidneys (UUO) in mice. It is filed as in vivo. The note with it: paricalcitol 750 ng/kg/day. As for the experimental part:
(§1) All animal procedures were performed according to the guidelines of animal research in the European Community and with prior approval by the Ethics Committee of the Health Research of the IIS-Fundacion Jiménez Díaz. For in vivo studies, mice received a daily intraperitoneal injection of the VDRA Paricalcitol starting 48 hours prior to induction of kidney damage.
(§2) At the time of sacrifice, animals were anesthetized with 5 mg/kg xylazine (Rompun, Bayer AG) and 35 mg/kg ketamine (Ketolar, Pfizer) and the kidneys perfused in situ with cold saline before removal. Then, kidney portions were fixed in formalin buffer for immunohistochemistry studies or immediately frozen in liquid nitrogen for gene and protein studies.
Unilateral ureteral obstruction (UUO) was established in male C57BL/6 mice, under isoflurane-induced anesthesia. The left ureter was ligated with silk (5/0) at two locations and cut between ligatures to prevent urinary tract infection (obstructed kidney).(Ucero et al 2014; Rodrigues-Díez et al 2013) Two groups were studied; untreated or paricalcitol treated (750 ng/kg/day, i.p., Abbot), n=6-8 mice per group, starting 48 hours before surgery. Studies compared both kidneys (contralateral vs. obstructed) in each mouse.
Paraffin-embedded kidney sections (3 µm) were stained using conventional methods. […] For each sample (processed by duplicate in a blinded manner), the average value was obtained from the analysis of 4 fields (20X objective) as density/mm2 or percentage stained area vs total analyzed area. Data are expressed as fold increase over control mice, as mean ± SEM of 8-10 animals per group. […]
For western blot, cell (25 µg/lane) and kidney (100-150 µg/lane) protein extracts were separated on 6%-12% polyacrylamide-SDS gels under reducing conditions. […] Autoradiographs were scanned using the Gel Doc™ EZ imager and analyzed with the Image Lab 3.0 software (BioRad). […]

Assay [1] has as its system TRAF3. The assay can be described thus: Renal TRAF3 (western blot), folic acid-induced renal injury in mice. Format: in vivo. As to conditions: folic acid 300 mg/kg model; paricalcitol 25 µg/kg/day i.p. On the procedure:
as §1, §2
Folic acid nephropathy is a classical model of kidney tubulointerstitial injury and inflammation that has been reported in humans. Mice received a single intraperitoneal injection of folic acid (Sigma) 300 mg/kg in 0.3 mol/l sodium bicarbonate or vehicle, and were sacrificed 48 hours later. […]
(§3) For western blot, cell (25 µg/lane) and kidney (100-150 µg/lane) protein extracts were separated on 6%-12% polyacrylamide-SDS gels under reducing conditions. […] Autoradiographs were scanned using the Gel Doc™ EZ imager and analyzed with the Image Lab 3.0 software (BioRad).
(Immunoblotting shows a protein as a band on a membrane.)

The test system of assay [2] is TRAF3. The assay can be described thus: TRAF3 western blot in TWEAK-stimulated HK2 cells. Format: cell-based, Human. The note with it: paricalcitol 15 umol/L 48 hours before TWEAK 100 ng/ml for 24 hours. As for the experimental part:
Human kidney proximal tubule epithelial cells (HK2 cell line, ATCC CRL-2190) were grown in RPMI 1640 with 10% fetal bovine serum (FBS), 1% glutamine, 100 U/ml penicillin, 100 µg/ml streptomycin, 5 µg/ml insulin-transferrin-selenite and 36 ng/ml hydrocortisone in 5% CO2 at 37° C. When cells reached 60 to 70% confluence, they were serum-depleted for 24 hours before the experiment.
Cells were stimulated with 100ng/ml recombinant human soluble TWEAK (Millipore) or p-200 µg/ml cresyl-sulfate (Raymond Vanholder and Griet Glorieux, University of Gent, Belgium). Concentrations of TWEAK and p-cresyl-sulfate were based on previously published dose-response experiments (Poveda et al. 2014; Sanz et al. 2008). […] DMSO, used as a solvent in some cases, had no effect on cell viability or on gene expression levels.
as §3

In assay [3] the test system is CCL2, CCL5 and IL6, CCL21A and CCL19. The assay can be described thus: Proinflammatory gene expression (real time PCR) in TWEAK-stimulated PBMCs from healthy donors. It is filed as cell-based, Human. The note with it: 15 µmol/L paricalcitol 48 hours, TWEAK 100 ng/mL 6 hours. (Quantitative PCR measures a nucleic acid by following its amplification.)

The structures appear in SMILES notation.

Consider `C[C@H](/C=C/[C@H](C)C(C)(C)O)[C@H]1CC[C@H]2/C(=C/C=C3C[C@@H](O)C[C@H](O)C3)CCC[C@]12C` [paricalcitol], for which the “canonical NF-κB 1 pathway” value with NF-κB 1 pathway is “without modulating”. In addition, in the assay on NF-κB2, the “increased RelB levels and its nuclear localization” value is listed as “prevented”; the “p100/p52 processing, and p52 nuclear translocation and DNA binding activity” value is “blocked”. Moreover, in the assay on NF-κB2 (real time PCR), the “increased expression of specific NF-κB2-regulated chemokines, including CCL21A and CCL19” value was “prevented”. The “renal TRAF3 protein levels” value in the assay with TRAF3 [1] is on record as “restored renal TRAF3 protein levels to values of control mice”. The “TWEAK-induced TRAF3 protein levels” value in the assay with TRAF3 [2] is “restored TWEAK-induced TRAF3 protein levels to values similar to control-untreated cells”. Further, in assay [3], the “TWEAK-induced upregulation of several proinflammatory genes, such as CCL2, CCL5 and IL6, as well as the NF-κB2-controlled genes CCL21A and CCL19” value is on record as “inhibited”.
